Key:
[1] = tested on: T-Rex 293 cell line SC3 cells having increased expression of androgen receptor protein due to exposure to doxycycline; assay: Cellular growth inhibition, T-Rex 293 SC3 cells with doxycycline (androgen receptor induced), CellTiter-Glo; format: cell-based; details: T-Rex 293 SC3 cells with 10 ng/mL doxycycline (increased androgen receptor expression)
Summary of the method: (§1)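 Doxycycline-inducible androgen receptor T-Rex 293 clone SC3, seeded at 2500/well in phenol red-free DMEM with 10% charcoal-dextran FBS, without doxycycline or with 10 ng/mL to induce receptor. Compound added after 24 h (0.5% DMSO), 72 h at 37 °C; CellTiter-Glo 2.0 luminescence, GI50 by four-parameter fit.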

[2] = tested on: T-Rex 293 cell line SC3 cells lacking increased expression of androgen receptor protein; assay: Cellular growth inhibition, T-Rex 293 SC3 cells without doxycycline, CellTiter-Glo; format: cell-based; details: T-Rex 293 SC3 cells not exposed to doxycycline, CellTiter-Glo 2.0
Summary of the method: as §1

T47D cells = assay: Cellular growth inhibition assay for T47D cells, CellTiter-Glo; format: cell-based, human; details: 72 hours treatment, CellTiter-Glo 2.0 cell viability
Summary of the method: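 Luminescence from CellTiter-Glo 2.0 after 72 h of compound exposure gives the viability signal. Cells grew in insulin-supplemented (0.2 units/mL) DMEM with 10% FBS and were treated one day after seeding at 0.5% DMSO. GI50 values come from four-parameter nonlinear regression.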

| Compound | GI50 ([1]; 72 h) [nM] | GI50 ([2]; 72 h) [nM] | GI50 ([1]; 72 hours) [nM] | GI50 ([2]; 72 hours) [nM] | GI50 (T47D cells) [nM] |
| --- | --- | --- | --- | --- | --- |
| Cc1sc2c(c1C)C(c1ccc(Cl)cc1)=N[C@@H](CC(=O)NCCOCCOCCOCCOCCN(C)c1ncc(C(=O)N[C@H]3C(C)(C)[C@H](Oc4ccc(C#N)c(Cl)c4)C3(C)C)cn1)c1nnc(C)n1-2 [Compound I-3, N-((1r,3r)-3-(3-chloro-4-cyanophenoxy)-2,2,4,4-tetramethylcyclobutyl)-2-((1-((S)-4-(4-chlorophenyl)-2,3,9-trimethyl-6H-thieno[3,2-f][1,2,4]triazolo[4,3-a][1,4]diazepin-6-yl)-2-oxo-6,9,12,15-tetraoxa-3-azaheptadecan-17-yl)(methyl)amino)pyrimidine-5-carboxamide] | < 500 | > 3000 | – | – | – |
| Cc1sc2c(c1C)C(c1ccc(Cl)cc1)=N[C@@H](CC(=O)NCCOCCOCCOCCOCCOCCOCCN(C)c1ncc(C(=O)N[C@H]3C(C)(C)[C@H](Oc4ccc(C#N)c(Cl)c4)C3(C)C)cn1)c1nnc(C)n1-2 [Compound I-4] | < 500 | > 3000 | – | – | – |
| Cc1sc2c(c1C)C(c1ccc(Cl)cc1)=N[C@@H](CC(=O)NCCCN1CCN(CCCN(C)c3ncc(C(=O)N[C@H]4C(C)(C)[C@H](Oc5ccc(C#N)c(Cl)c5)C4(C)C)cn3)CC1)c1nnc(C)n1-2 [Compound I-5, N-((1r,3r)-3-(3-chloro-4-cyanophenoxy)-2,2,4,4-tetramethylcyclobutyl)-2-((3-(4-(3-(2-((S)-4-(4-chlorophenyl)-2,3,9-trimethyl-6H-thieno[3,2-f][1,2,4]triazolo[4,3-a][1,4]diazepin-6-yl)acetamido)propyl)piperazin-1-yl)propyl)(methyl)amino)pyrimidine-5-carboxamide] | < 500 | > 3000 | – | – | – |
| Cc1sc2c(c1C)C(c1ccc(Cl)cc1)=N[C@@H](CC(=O)NCCOC1CCN(c3ncc(C(=O)N[C@H]4C(C)(C)[C@H](Oc5ccc(C#N)c(Cl)c5)C4(C)C)cn3)CC1)c1nnc(C)n1-2 [Compound I-6] | < 500 | 500 to 1500 | – | – | – |
| Cc1sc2c(c1C)C(c1ccc(Cl)cc1)=N[C@H](CC(=O)NCCOCCOCCOCCOCCOCCOCCOC1CCN(c3ncc(C(=O)N[C@H]4C(C)(C)[C@H](Oc5ccc(C#N)c(Cl)c5)C4(C)C)cn3)CC1)c1nnc(C)n1-2 [Compound I-9] | < 500 | 1500 to 3000 | – | – | – |
| Cc1sc2c(c1C)C(c1ccc(Cl)cc1)=N[C@@H](CC(=O)NCCCN1CCN(CCCOC3CCN(c4ncc(C(=O)N[C@H]5C(C)(C)[C@H](Oc6ccc(C#N)c(Cl)c6)C5(C)C)cn4)CC3)CC1)c1nnc(C)n1-2 [Compound I-10] | < 500 | 1500 to 3000 | – | – | – |
| Cc1sc2c(c1C)C(c1ccc(Cl)cc1)=N[C@@H](CC(=O)NCCOCCOCCOCCOC1CCN(c3ncc(C(=O)N[C@H]4C(C)(C)[C@H](Oc5ccc(C#N)c(Cl)c5)C4(C)C)cn3)CC1)c1nnc(C)n1-2 [Compound I-11] | < 500 | 1500 to 3000 | – | – | – |
| Cc1sc2c(c1C)C(c1ccc(Cl)cc1)=N[C@H](CC(=O)NCCOCCOCCOCCOC1CCN(c3ncc(C(=O)N[C@H]4C(C)(C)[C@H](Oc5ccc(C#N)c(Cl)c5)C4(C)C)cn3)CC1)c1nnc(C)n1-2 [Compound I-13] | > 3000 | > 3000 | – | – | – |
| Cc1sc2c(c1C)C(c1ccc(Cl)cc1)=N[C@@H](CC(=O)NCCOCCOCCOCC1CCN(c3ncc(C(=O)N[C@H]4C(C)(C)[C@H](Oc5ccc(C#N)c(Cl)c5)C4(C)C)cn3)CC1)c1nnc(C)n1-2 [Compound I-17] | < 500 | 500 to 1500 | – | – | – |
| Cc1sc2c(c1C)C(c1ccc(Cl)cc1)=N[C@@H](CC(=O)NCCOCCOCCOCC1CN(c3ncc(C(=O)N[C@H]4C(C)(C)[C@H](Oc5ccc(C#N)c(Cl)c5)C4(C)C)cn3)C1)c1nnc(C)n1-2 [Compound I-18] | 500 to 1500 | 1500 to 3000 | – | – | – |
| Cc1sc2c(c1C)C(c1ccc(Cl)cc1)=N[C@H](CC(=O)NCCOCCOCCOCCOCCN(C)c1ncc(C(=O)N[C@H]3C(C)(C)[C@H](Oc4ccc(C#N)c(Cl)c4)C3(C)C)cn1)c1nnc(C)n1-2 [Compound I-19] | > 3000 | > 3000 | – | – | – |
| Cc1sc2c(c1C)C(c1ccc(Cl)cc1)=N[C@@H](CC(=O)NCCCCCOC1CCN(c3ncc(C(=O)N[C@H]4C(C)(C)[C@H](Oc5ccc(C#N)c(Cl)c5)C4(C)C)cn3)CC1)c1nnc(C)n1-2 [Compound I-22, N-((1r,3r)-3-(3-chloro-4-cyanophenoxy)-2,2,4,4-tetramethylcyclobutyl)-2-(4-((5-(2-((S)-4-(4-chlorophenyl)-2,3,9-trimethyl-6H-thieno[3,2-A][1,2,4]triazolo[4,3-a][1,4]diazepin-6-yl)acetamido)pentyl)oxy)piperidin-1-yl)pyrimidine-5-carboxamide] | – | – | < 500 | > 3000 | – |
| Cc1sc2c(c1C)C(c1ccc(Cl)cc1)=N[C@@H](CC(=O)NCCCCCCCOC1CCN(c3ncc(C(=O)N[C@H]4C(C)(C)[C@H](Oc5ccc(C#N)c(Cl)c5)C4(C)C)cn3)CC1)c1nnc(C)n1-2 [Compound I-24] | < 500 | > 3000 | – | – | – |
| Cc1sc2c(c1C)C(c1ccc(Cl)cc1)=N[C@@H](CC(=O)NCCCCOCCOC1CCN(c3ncc(C(=O)N[C@H]4C(C)(C)[C@H](Oc5ccc(C#N)c(Cl)c5)C4(C)C)cn3)CC1)c1nnc(C)n1-2 [Compound I-28] | < 500 | 500 to 1500 | – | – | – |
| Cc1sc2c(c1C)C(c1ccc(OCCOCCOC3CCN(c4ncc(C(=O)N[C@H]5C(C)(C)[C@H](Oc6ccc(C#N)c(Cl)c6)C5(C)C)cn4)CC3)cc1)=N[C@@H](CC(=O)O)c1nnc(C)n1-2 [Compound I-39] | 500 to 1500 | > 3000 | – | – | – |
| Cc1sc2c(c1C)C(c1ccc(OCCOCCOCCOC3CCN(c4ncc(C(=O)N[C@H]5C(C)(C)[C@H](Oc6ccc(C#N)c(Cl)c6)C5(C)C)cn4)CC3)cc1)=N[C@@H](CC(=O)O)c1nnc(C)n1-2 [Compound I-40] | > 3000 | > 3000 | – | – | – |
| Cc1sc2c(c1C)C(c1cccc(OCCOCCOC3CCN(c4ncc(C(=O)N[C@H]5C(C)(C)[C@H](Oc6ccc(C#N)c(Cl)c6)C5(C)C)cn4)CC3)c1)=N[C@@H](CC(=O)O)c1nnc(C)n1-2 [Compound I-42] | 500 to 1500 | > 3000 | – | – | – |
| Cc1sc2c(c1C)C(c1cccc(OCCOCCOCCOC3CCN(c4ncc(C(=O)N[C@H]5C(C)(C)[C@H](Oc6ccc(C#N)c(Cl)c6)C5(C)C)cn4)CC3)c1)=N[C@@H](CC(=O)O)c1nnc(C)n1-2 [Compound I-43] | > 3000 | > 3000 | – | – | – |
| CCNC(=O)C[C@@H]1N=C(c2ccc(OCCOCCOCCOC3CCN(c4ncc(C(=O)N[C@H]5C(C)(C)[C@H](Oc6ccc(C#N)c(Cl)c6)C5(C)C)cn4)CC3)cc2)c2c(sc(C)c2C)-n2c(C)nnc21 [Compound I-45, N-((1r,3r)-3-(3-chloro-4-cyanophenoxy)-2,2,4,4-tetramethylcyclobutyl)-2-(4-(2-(2-(2-(4-((S)-6-(2-(ethylamino)-2-oxoethyl)-2,3,9-trimethyl-6H-thieno[3,2-f][1,2,4]triazolo[4,3-a][1,4]diazepin-4-yl)phenoxy)ethoxy)ethoxy)ethoxy)piperidin-1-yl)pyrimidine-5-carboxamide] | < 500 | 500 to 1500 | – | – | – |
| CCNC(=O)C[C@@H]1N=C(c2cccc(OCCOCCOC3CCN(c4ncc(C(=O)N[C@H]5C(C)(C)[C@H](Oc6ccc(C#N)c(Cl)c6)C5(C)C)cn4)CC3)c2)c2c(sc(C)c2C)-n2c(C)nnc21 [Compound I-47, N-((1r,3r)-3-(3-chloro-4-cyanophenoxy)-2,2,4,4-tetramethylcyclobutyl)-2-(4-(2-(2-(3-((S)-6-(2-(ethylamino)-2-oxoethyl)-2,3,9-trimethyl-6H-thieno[3,2-f][1,2,4]triazolo[4,3-a][1,4]diazepin-4-yl)phenoxy)ethoxy)ethoxy)piperidin-1-yl)pyrimidine-5-carboxamide] | < 500 | 500 to 1500 | – | – | – |
| CCNC(=O)C[C@@H]1N=C(c2cccc(OCCOCCOCCOC3CCN(c4ncc(C(=O)N[C@H]5C(C)(C)[C@H](Oc6ccc(C#N)c(Cl)c6)C5(C)C)cn4)CC3)c2)c2c(sc(C)c2C)-n2c(C)nnc21 [Compound I-48, N-((1r,3r)-3-(3-chloro-4-cyanophenoxy)-2,2,4,4-tetramethylcyclobutyl)-2-(4-(2-(2-(2-(3-((S)-6-(2-(ethylamino)-2-oxoethyl)-2,3,9-trimethyl-6H-thieno[3,2-f][1,2,4]triazolo[4,3-a][1,4]diazepin-4-yl)phenoxy)ethoxy)ethoxy)ethoxy)piperidin-1-yl)pyrimidine-5-carboxamide] | < 500 | 500 to 1500 | – | – | – |
| CCNC(=O)C[C@@H]1N=C(c2ccc(N3CCC(N(C)C4CCN(c5ncc(C(=O)N[C@H]6C(C)(C)[C@H](Oc7ccc(C#N)c(Cl)c7)C6(C)C)cn5)CC4)CC3)cc2)c2c(sc(C)c2C)-n2c(C)nnc21 [Compound I-113] | < 500 | 1500 to 3000 | – | – | – |
| CCNC(=O)C[C@@H]1N=C(c2ccc(N3CCC(OC4CCN(c5ncc(C(=O)N[C@H]6C(C)(C)[C@H](Oc7ccc(C#N)c(Cl)c7)C6(C)C)cn5)CC4)CC3)cc2)c2c(sc(C)c2C)-n2c(C)nnc21 [Compound I-114] | < 500 | 500 to 1500 | – | – | – |
| Cc1sc2c(c1C)C(c1ccc(CC3CC4(CCN(c5ncc(C(=O)N[C@H]6C(C)(C)[C@H](Oc7ccc(C#N)c(Cl)c7)C6(C)C)cn5)CC4)C3)cc1)=N[C@@H](C)c1nnc(C)n1-2 [Compound I-303] | – | – | – | – | < 500 |
